Laboratory results: patent US20040110769A1, “Farnesyl protein transferase inhibitor combinations with antiestrogen agents” (priority 2003, published 2004)
Several values for one entry are separate records, joined by “and”; a condition that tells them apart may be missing. Equal values may be shown once.

System: MCF7 human breast carcinoma cells
Test: Anti-tumor activity in established MCF-7 human breast tumor xenografts in nude mice
Type: in vivo
Details: MCF-7 xenograft in female nude mice, individual animals showing regression
Procedure: A combination of a farnesyl transferase inhibitor, namely the compound identified as Compound 75 above (R115777), and an anti-estrogen agent, namely tamoxifen (TMX), was tested for anti-tumor activity in comparison with the activity of the individual components of the combination, as described below.
Female Nude-Homo NCRNU non-ovarectimized mice 8 weeks of age were fed ad libitum water and an irradiated standard rodent diet. Mice were housed in stable microisolators on a 12 hour light cycle at 21-22° C. and 40-60% humidity.
Mice were inoculated subcutaneously with 1×10^7 MCF7 human breast carcinoma cells in the flank. Tumors were monitored initially twice a week and then daily as neoplasms reached the desired size, approximately 100 mg. When the carcinomas reached a size between 62-144 mg in calculated tumor weight, the animals were pair matched into the various treatment groups (group mean tumor weights ranged from 83-85 mg).
Estimated tumor weight was calculated using the formula: [formula] […]
The tumor growth inhibition (TGI) endpoint was used in this study to assess the efficacy of the various treatments. The tumor burden endpoint was set at 1.0 g as measured by calliper. TGI values were determined on the last day of the study (Day 5), when all mice were under test, except those that had expired from treatment-related or procedural causes. […]

Structure (SMILES)	Regression in Individual Animals (magnitude of tumor regression expressed as % reduction from pretreatment tumor size) (TMX 1 mg/kg, s.c.)	Regression in Individual Animals (magnitude of tumor regression expressed as % reduction from pretreatment tumor size) (R115777 100 mg/kg, orally qd to end)
CC/C(=C(\c1ccccc1)c1ccc(OCCN(C)C)cc1)c1ccccc1 [TMX, tamoxifen]	10% and 78% and 94% and 44% and 59% and 31%	–
Cn1cncc1C(N)(c1ccc(Cl)cc1)c1ccc2c(c1)c(-c1cccc(Cl)c1)cc(=O)n2C (single isomer, unassigned; (+)) [Compound R115777, (+)-6-[amino(4-chlorophenyl)(1-methyl-1H-imidazol-5-yl)methyl]-4-(3-chlorophenyl)-1-methyl-2(1H)-quinolinone]	–	93% and 100%
